Test results from ChEMBL document CHEMBL1155865, “Discovery of triazolinone non-nucleoside inhibitors of HIV reverse transcriptase” (Bioorg Med Chem Lett, 2008).
Converted amounts (≈) assume the structure as drawn. The source made the active and inactive calls. The rule behind the calls is not given here.

Tests used:
[1] = target: T1, Human immunodeficiency virus type 1 reverse transcriptase (Human immunodeficiency virus 1, UniProt Q72547); assay: (§1) Binding affinity to wild type HIV1 reverse transcriptase by SPR assay
[2] = target: T1, Human immunodeficiency virus type 1 reverse transcriptase; assay: Inhibition of wild type HIV1 reverse transcriptase polymerase activity by scintillation counting assay
[3] = tested on: Human immunodeficiency virus 1; assay: Antiviral activity against HIV1 with wild type reverse transcriptase in MT4 cells assessed as inhibition of virus-induced cytopathic effect; assay type: functional, organism-based; conditions: Human immunodeficiency virus 1, MT4
[4] = tested on: Human immunodeficiency virus 1; assay: Antiviral activity against HIV1 with reverse transcriptase K103N/Y181C mutant in MT4 cells assessed as inhibition of virus-induced cytopathic effect; assay type: functional, organism-based; conditions: Human immunodeficiency virus 1, MT4
[5] = Solubility of compound at pH 6.5; assay type: physicochemical; conditions: buffer
Caco-2 = assay: Apparent permeability across human Caco-2 cells; assay type: ADME, cell-based
[6] = Clearance in dog at 0.5 mg/kg, iv or 2 mg/kg, po; assay type: ADME, organism-based, Canis lupus familiaris; conditions: in vivo
[7] = Cmax in dog at 0.5 mg/kg, iv or 2 mg/kg, po; assay type: ADME, organism-based, Canis lupus familiaris; conditions: in vivo
[8] = AUC (0 to infinity) in dog at 0.5 mg/kg, iv or 2 mg/kg, po; assay type: ADME, organism-based, Canis lupus familiaris; conditions: plasma
[9] = Bioavailability in dog at 2 mg/kg, po; assay type: ADME, organism-based, Canis lupus familiaris; conditions: in vivo
[10] = tested on: Human immunodeficiency virus 1; assay: Antiviral activity against HIV1 with reverse transcriptase Y181C mutant in MT4 cells assessed as inhibition of virus-induced cytopathic effect; assay type: functional, organism-based; conditions: Human immunodeficiency virus 1, MT4
[11] = tested on: Human immunodeficiency virus 1; assay: Antiviral activity against HIV1 with reverse transcriptase […] mutant in MT4 cells assessed as inhibition of virus-induced cytopathic effect; assay type: functional, organism-based; conditions: Human immunodeficiency virus 1, MT4
[12] = tested on: Human immunodeficiency virus 1; assay: Antiviral activity against HIV1 with reverse transcriptase K103N/L100I mutant in MT4 cells assessed as inhibition of virus-induced cytopathic effect; assay type: functional, organism-based; conditions: Human immunodeficiency virus 1, MT4
Cytochrome P450 3A4 = Cytochrome P450 3A4 (Homo sapiens, UniProt P08684); assay: Inhibition of CYP3A4; assay type: ADME
Sequence of Cytochrome P450 3A4 (P08684 whole entry): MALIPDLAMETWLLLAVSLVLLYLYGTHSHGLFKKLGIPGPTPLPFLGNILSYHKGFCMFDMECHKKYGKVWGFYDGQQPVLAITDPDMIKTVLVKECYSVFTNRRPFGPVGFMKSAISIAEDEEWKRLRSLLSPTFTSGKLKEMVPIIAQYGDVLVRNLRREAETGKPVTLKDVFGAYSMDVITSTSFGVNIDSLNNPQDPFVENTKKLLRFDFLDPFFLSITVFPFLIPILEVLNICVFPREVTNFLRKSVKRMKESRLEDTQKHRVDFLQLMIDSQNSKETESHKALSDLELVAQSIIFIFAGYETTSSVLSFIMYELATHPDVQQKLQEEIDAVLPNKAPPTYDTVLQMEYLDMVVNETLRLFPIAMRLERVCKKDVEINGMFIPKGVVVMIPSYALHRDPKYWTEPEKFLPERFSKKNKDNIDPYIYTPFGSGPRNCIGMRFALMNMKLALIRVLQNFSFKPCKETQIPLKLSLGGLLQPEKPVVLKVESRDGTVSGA

Liver microsomes = assay: Clearance in rat liver microsome per mg of protein; assay type: ADME
[13] = target: Human immunodeficiency virus type 1 reverse transcriptase (Human immunodeficiency virus 1) (UniProt Q72547); assay: as §1

SMILES	IC50 [2] [µM]	EC50 [3] [µM]	EC50 [4] [µM]	further results
Cn1c(Cc2cccc(Oc3ccccc3)c2)n[nH]c1=O	18			Kd [1]: 3 µM
C[C@H]1CC(Cc2ccc(Cl)c(Oc3cc(Cl)cc(C#N)c3)c2F)=NNC1=O	0.017	0.032		
CCc1ccc(Cc2n[nH]c(=O)n2C)c(F)c1Oc1cc(Cl)cc(C#N)c1		0.002	0.004	
CC1OC(Cc2ccc(Cl)c(Oc3cccc(Br)c3)c2)=NNC1=O (stereo not given)	0.05			
COc1c(Br)ccc(Cc2n[nH]c(=O)n2C)c1F	34			Kd [1]: 4 µM
Cn1c(Cc2ccc(Br)cc2)n[nH]c1=O	> 100			Kd [1]: 388 µM
Cn1c(Cc2ccc(Br)c(Oc3cc(Cl)cc(C#N)c3)c2F)n[nH]c1=O	0.005	0.002	0.009	Kd [1]: 0.004 µM; solubility [5]: 2.4 µg/mL (≈ 5.48 µM); Papp (Caco-2): 15.1 10^-6 cm/s; clearance [6]: 1.5 mL/min/kg; Cmax [7]: 1300 nM; AUC(0-inf) [8]: 38.4 µM·h; bioavailability [9]: 74%; EC50 [10]: 0.005 µM; EC50 [11]: 0.001 µM
Cc1cc(Cc2ccc(Cl)c(Oc3cc(Cl)cc(C#N)c3)c2F)n[nH]c1=O		0.001	0.019	EC50 [12]: 0.004 µM
Cc1ccc(Cc2n[nH]c(=O)n2C)c(F)c1Oc1cc(Cl)cc(C#N)c1		0.002	0.026	IC50 (Cytochrome P450 3A4): 12 µM
Cn1c(Cc2ccc(Br)cc2F)n[nH]c1=O	> 10			Kd [1]: 102 µM
CC1OC(Cc2ccc(Cl)c(Oc3cc(Cl)cc(C#N)c3)c2F)=NNC1=O (stereo not given)	0.013	0.005	0.034	IC50 (Cytochrome P450 3A4): 0.27 µM
C[C@H]1NC(Cc2ccc(Cl)c(Oc3cc(Cl)cc(C#N)c3)c2F)=NNC1=O	0.011	0.008	0.072	clearance (Liver microsomes): 130 µL/min/mg
Cc1n[nH]c(=O)n1C	> 100			Activity [13]: inactive
O=c1[nH]nc(Cc2ccc(Cl)c(Oc3cccc(Br)c3)c2)o1	5.8			
Cn1c(Cc2ccc(Cl)c(Oc3cccc(Br)c3)c2)n[nH]c1=O	0.69			
CN1CC(Cc2ccc(Cl)c(Oc3cccc(Br)c3)c2)=NNC1=O	0.15			
Cn1c(Cc2ccc(Cl)c(Oc3cc(Cl)cc(C#N)c3)c2F)n[nH]c1=O	0.011	0.008	0.039	
O=c1[nH]nc(Cc2ccc(Cl)c(Oc3cccc(Br)c3)c2)s1	0.53			
Cn1c(Cc2ccc(C3CC3)c(Oc3cc(Cl)cc(C#N)c3)c2F)n[nH]c1=O		0.002	0.011	
Cc1cc(Cc2ccc(Cl)c(Oc3cccc(Br)c3)c2)n[nH]c1=O	0.13			
Cn1c(Cc2ccccc2)n[nH]c1=O	> 100			Activity [13]: inactive
Cc1nc(Cc2ccc(Cl)c(Oc3cccc(Br)c3)c2)n[nH]c1=O	0.33			
CN(C)c1cc(Cc2ccc(Cl)c(Oc3cccc(Br)c3)c2)n[nH]c1=O	0.23			
